Assay results: US6943190B2, “Method of using pyruvate and/or its derivatives for the treatment of cytokine-mediated inflammatory conditions” (University of Pittsburgh-of the Commonwealth System of …, priority 2001, dated 2005)

Key:
NF-B = assay: LPS-induced NF-kB activation in RAW264.7 cells (EMSA); format: cell-based, murine; settings: EMSA at 15 minutes and 4 hours after LPS
Method: Cell Culture. BALB/c murine macrophage-like RAW 264.7 cells obtained from the American Type Culture Collection (ATCC Number TIB-71, ATCC, Rockville, Mass.) (61), were cultured in RPMI 1640 (Life Technologies, Grand Island, N.Y.) supplemented with 10% heat inactivated fetal bovine serum (Gemini, Calabasas, Calif.), 2 mM glutamine (Cat. # 25030-149, Gibco BRL, Rockville, Mass.) and antibiotic-antimycotic mix (Cat. # 15240-062, Gibco BRL, Rockville, Mass.) in a humidified incubator with 5% CO2. Cells were mechanically removed and resuspended in serum-free Opti-MEM I medium (Life Technology, Grand Island, N.Y.) to perform experiments at 75% confluence.
Nuclear extract preparation. The day before use, cells were plated at a density of 1×10^6 per well in 6 well tissue culture plates. After stimulation at indicated times, cells were removed from the incubator and place on ice immediately. Cells were washed once with 2 ml phosphate buffered saline (PBS) then harvested in 1 ml of PBS containing 2% FBS using rubber scrapper. […] The supernatant was transferred to a new tube, protein concentration was determined using a commercially available Bradford assay (Bio-Rad Protein Assay, Hercules, Calif.). […]

TNF = assay: Serum TNF in endotoxemic mice (ELISA); format: in vivo, Balb/C mice; settings: 2 hours after LPS
Method: Endotoxin shock. Mice were injected with endotoxin (Escherichia coli lipopolysaccharide, LPS 0111:B4; Sigma Chemical Co, St. Louis, Mo.) that was dissolved in sterile pyrogen-free saline at stock concentrations of 10 mg/ml. LPS solutions were sonicated for 20 min immediately prior to use for each experiment. Mice received an LD75 dose of LPS (5 mg/kg, i.p.). Blood was collected at different times after LPS administration, allowed to clot for 2 h at room temperature, then centrifuged for 20 min at 1,500 g. Serum samples were stored at […] prior to analysis. Mortality was recorded for up to 3 weeks after injection to ensure that no additional late deaths occurred.
Cytokine measurements. TNF concentration in mouse serum and in conditioned media from RAW 264.7 cell cultures was measured by ELISA (minimum detectable concentration=10 pg/ml). […] Mouse serum IL-6 and IL-1β levels were measured using ELISA kits (R&D Systems, Inc., Minneapolis, Minn.). HMGB-1 was analyzed by western blot as previously described by Wang et al, 1999. […] Protein was electroblotting to Immun-blot PVDF membrane (Bio-rad, Hercules Calif.) and HMGB-1 was analyzed using polyclonal 241 antibody and secondary anti-rabbit horseradish peroxidase (Amersham, Pitscataway, N.J.). Standard curves were constructed using r-HMGB-1, and the intensity of the 30 kD band analyzed by densitometry. […]

## CCOC(=O)C(C)=O [ethyl pyruvate]
NF-B
  LPS-induced activation of NF-B: significantly prevented LPS-induced activation of NF-B signaling in a concentration dependent fashion
TNF; pretreatment 40 mg/kg 30 min before LPS 5 mg/kg i.p., vehicle printed 17+/−4, P<0.05
  serum TNF: 39+−6 ng TNF/ml
TNF; pretreatment 40 mg/kg
  release of serum TNF (in words): significantly attenuates the release of serum TNF
